The values that follow are results of earlier work, collected in patent US8853212B2, “Substituted aminotetrahydrothiopyrans and derivatives thereof as dipeptidyl peptidase-IV inhibitors for the treatment of diabetes” (Merck Sharp & Dohme Corp, priority 2010, dated 2014).

One data set concerns cardiac allograft. Conditions: rats; doubled from day 7.
A further data set relates to hematopoiesis. Particulars: mouse, cyclophosphamide-induced neutropenia.
Another data set concerns the target DPP-4 (Homo sapiens (Human), UniProt P27487).

DPP-4, sequence (P27487 39-766, species assumed): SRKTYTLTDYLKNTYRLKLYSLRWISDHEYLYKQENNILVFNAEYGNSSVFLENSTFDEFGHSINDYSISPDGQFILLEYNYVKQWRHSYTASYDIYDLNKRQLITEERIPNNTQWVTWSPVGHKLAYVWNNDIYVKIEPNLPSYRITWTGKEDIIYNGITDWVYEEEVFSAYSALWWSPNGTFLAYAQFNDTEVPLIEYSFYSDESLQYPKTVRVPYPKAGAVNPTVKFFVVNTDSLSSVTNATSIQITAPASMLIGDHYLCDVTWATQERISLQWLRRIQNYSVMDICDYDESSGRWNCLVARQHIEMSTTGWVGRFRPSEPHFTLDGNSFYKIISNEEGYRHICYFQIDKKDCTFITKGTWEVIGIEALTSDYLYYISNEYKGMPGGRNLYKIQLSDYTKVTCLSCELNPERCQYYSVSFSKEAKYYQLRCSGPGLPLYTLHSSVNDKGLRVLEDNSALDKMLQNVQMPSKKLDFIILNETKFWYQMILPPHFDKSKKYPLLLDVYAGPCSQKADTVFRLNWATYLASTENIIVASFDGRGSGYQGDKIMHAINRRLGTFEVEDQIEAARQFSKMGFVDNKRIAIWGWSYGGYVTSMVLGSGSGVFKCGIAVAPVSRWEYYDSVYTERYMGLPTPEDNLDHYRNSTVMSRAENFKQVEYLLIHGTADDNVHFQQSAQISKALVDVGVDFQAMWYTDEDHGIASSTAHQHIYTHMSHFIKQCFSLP

For `CC(C)N1CCC(c2ccccc2)(c2ccccc2)CC1` [Prodipine, Pro-Pro-diphenyl-phosphonate], in the data set with cardiac allograft, the cardiac allograft survival is listed as 14 day. `CC(C)[C@H](N)C(=O)N1CCC[C@H]1B(O)O` [Val-Bono-Pro]: the hematopoiesis result with hematopoiesis is given as “stimulated hematopoiesis”. Take diprotin A: the “degradation of GRF in plasma to GRF[3-44]” value on DPP-4 is “prevented”.
